Source: patent US8258173B2, “Melatonin derivatives and their use as antioxidants” (University of Sunderland, priority 2006, dated 2012)
Like-named read-outs stand apart in the source and are kept apart here.

Assays:
[1] = system: lipid peroxidation in bovine brain extract liposomes (hydroxyl radicals); assay: Antioxidant test, TBA assay (lipid peroxidation); assay type: biochemical; details: for IC50: brain extract liposomes, FeCl3/ascorbic acid, 37° C. 30 min, absorbance 532 nm; for antioxidant activity (in words): scavenging hydroxyl radicals, protection against lipid peroxidation
Experimental: Ascorbic acid and propylgallate were purchased from Aldrich. N-Butanol and ethanol were purchased from BDH. Butylated hydroxytoluene (BHT), bovine brain extract, FeCl3, thiobarbituric acid (TBA) and PBS (phosphate buffered saline) tablets were purchased from Sigma. For spectroscopic measurements, a UNICAM UVNIS Spectrometer (UV2) was used. A well-controlled water bath was utilized for incubating the test system at the required temperatures. Plastic falcon tubes were used to accommodate the assay. Accurate pipettes were used to dispense the reagents.
The following liposomes and reagents were prepared in order to carry out the experiments. • 1. Brain extract (50 mg) was weighed into a clean universal container. About 7 glass balls and 10 cm^3 of PBS were added. The mixture was sonicated in an ice-water bath until the lipid was suspended and the suspension was homogeneous and milky in appearance. The suspension was kept cool during the sonication, although care was taken not to overfill the bath with ice as the sonication becomes relatively ineffective. • 2. Ascorbic acid (0.0176 g) was dissolved in deionised water and diluted in 100 cm^3 of volumetric flask. • 3. Ferric chloride hexahydrate (0.0270 g) was dissolved in deionized water and diluted in 100 cm^3 of volumetric flask. • 4. Sodium hydroxide (1 g) was dissolved in 500 cm^3 of deionized water. • 5. Phosphate buffered saline was prepared (PBS, pH=7.4). • 6. HCl (338 cm^3, 37%) was diluted with 162 cm^3 deionized water to give 500 cm^3 of 25% HCl. • 7. BHT (5 g) was dissolved in 250 cm^3 ethanol. • 8. TBA (5 g) was added to 500 cm^3, 50 mM NaOH, and the solution was heated with stirring to dissolve all the TBA. • 9. PG (0.1061 g) was dissolved in 500 cm^3 deionized water. • 10. A stock solution of test compound at 10 mg/cm^3 was prepared, the concentration depended on the estimated activity of the substance, and serial dilutions were made to obtain 5.0, 2.5, 1.25, 0.625, 0.3125 and 0.15625 mg/cm^3. The stock solution and these six dilutions were screened in the lipid peroxidation—TEA test, in attempt to obtain a dose response curve for antioxidant efficacy against concentration for the substance.
Sixty-eight centrifuge tubes were numbered. • 1. Test substance (0.1 cm^3) was added to tubes; 10 mg/cm^3 to No. 13-20 of tubes, 5 mg/cm^3 to No. 21-28, 2.5 mg/cm^3 to No. 29-36, 1.25 mg/cm^3 to No. 37-44, 0.625 mg/cm^3 to No. 45-52, 0.3125 mg/cm^3 to No. 53-60, 0.15625 mg/cm^3 to No. 61-68. • 2. PG (0.1 cm^3) was added to 9-12. • 3. Ethanol (0.1 cm^3) was added to No. 5-8. • 4. Deionized water (0.3 cm^3) was added to No. 1-4, deionized water (0.4 cm^3) was added to No. 17-20, 25-28, 33-36, 41-44, 49-52, 57-60, and 65-68. • 5. Liposome (0.2 cm^3) was added to No. 1-4, 5-8, 9-12, 13-16, 21-24, 29-32, 37-40, 45-48, 53-56 and 61-64. • 6. PBS (0.5 cm^3) was added to all tubes. • 7. Ferric chloride (0.1 cm^3, 1 mM) was added to No. 5-8, 9-12, 13-16, 21-24, 29-32, 37-40, 45-48, 53-56, and 61-64. • 8. Ascorbic acid (0.1 cm^3, 1 mM) was added to No. 5-8, 9-12, 13-16, 21-24, 29-32, 37-40, 45-48, 53-56 and 61-64. • 9. The tubes were incubated at 37° C. for 30 min. • 10. BHT (0.1 cm^3, 2%), TBA (0.5 cm^3, 1%) and HCl (0.5 cm^3, 25%) were added to all tubes. • 11. The tubes were heated at 85-90° C. for […]. • 12. The tubes were removed from heater and cooled. • 13. N-Butanol (2.5 cm^3) was added to all tubes. The tubes were then shaken to mix and spun at 3500 rpm at room temperature for 10 min. • 14. N-Butanol (2.5 cm^3) was removed and placed in cuvettes. • 15. Absorbance at 532 nm on a spectrophotometer was recorded, using n-butanol as blank. • 16. The mean and standard deviation were calculated. The % inhibition was calculated using equation (1).
[formula] • All data are expressed and mean±SEM (n=4). % inhibition was used to construct the graph and calculate IC50.

[2] = system: HPV-16 immortalized human keratinocyte cell line; assay: Cell line test (MTT), keratinocyte proliferation; assay type: cell-based; details: for IC50: read-out: MTT assay IG50; for anti-proliferative activity (in words): HPV-16 immortalized keratinocyte proliferation
Source text: 3-[4′,5′-Dimethylthiazol-2′-yl]-2,5-diphenyltetrazolium bromide (MTT), dimethyl sulphoxide (DMSO), isopropranol, foetal calf serum, and trypan blue were purchased from Sigma-Aldrich. Trypsin 250 was purchased from DIFCO. Ethylenediaminetetraacetic acid (EDTA), glucose, sodium phenol red, sodium chloride, potassium chloride, sodium hydrogen carbonate, potassium dihydrogen phosphate, and disodium hydrogen phosphate were purchased from BDH. Keratinocyte-SFM was purchased from GIBCO. For spectroscopic measurements, MRX Microplate Reader was used, which was controlled by Revelation Version 3.04.
The following solutions were prepared for use in the cell line test (MTT). • 1. Sodium chloride (8 g), potassium chloride (0.2 g), disodium hydrogen phosphate (1.15 g) and potassium dihydrogen phosphate (0.2 g) were dissolved in deionized water (1 L). This PBS solution was warmed to 37° C. at the time of use. • 2. Trypsin 250 (2.5 g), EDTA (0.2 g), glucose (1.0 g), potassium chloride (0.4 g), sodium chloride (8.0 g), sodium phenol red (0.002 g), and sodium hydrogen carbonate (0.58 g) were dissolved in deionized water (1 L). This solution was warmed to 37° C. at the time of use. • 3. Trypsin inhibitor solution was created by using feotal calf (1 ml) and was diluted in 100 ml of PBS. • 4. MTT powder (0.125 g) was dissolved in PBS buffer (25 ml) to give 5 mg/ml of MTT stock solution, which was stored at −20° C. and wrapped in foil to protect from light to create MTT stock solution. • 5. MTT stock solution was defrosted and diluted 1 in 10 in PBS buffer to give 0.5 mg/ml of working solution, which was prepared at the time of use to create an MTT working solution. • 5. Trypan blue solution was created by dissolving Trypan blue (0.04 g) in deionized water (10 ml).
The cell culture consisted of an HPV-16 immortalized human keratinocyte cell line from American Type Culture Collection (ATCC).
Cells were cultured in Serum-Free Keratinocyte Medium (Keratinocyte-SFM) supplemented with recombinant epidermal growth factor (rEGF) and bovine pituitary extract (BPE) in a T-75 flask under conditions of 5% C02 at 37° C. Fluid in the flask was changed with fresh complete medium every 3 days.
When cells grew to 60-80% confluence as determined under a microscope, the flask was washed with PBS. Small amount of trypsin-EDTA solution (1-2 ml) was added to the flask and incubated for 5 minutes at 37° C. When approximately 90% of the cells were dislodged, trypsin inhibitor solution (10 ml) was added to stop trypsin reaction. The cells were spun at 500 rpm for 10 minutes at room temperature. The cell pellet was gently resuspended in 10 ml of media. The basal cells were counted with a haemocytometer by adding trypan blue solution to determine viable cells. The cells were adjusted the density to 1×10^5 cells/mL in media.
A stock solution of each compound was prepared by dissolving compound (20 mg) in DMSO (1 ml), to give 20 mg/mL of stock solution.
A working solution was prepared by diluting a stock solution (20 μl) into media (1.98 ml) to give 200 μg/mL of working solution.
The following steps were performed to carry out the MMT experiment. 100 μl of resuspended cell suspension was added to test wells in 96-well plate, omitting column 11. Media was aspirated from each well after plate was incubated for 24 hours at 37° C., 5% CO2, then wells were washed with PBS. 100 μl of media containing 1% DMSO was added to each test well, omitting column 2. 200 μl of working solution of compound was added to each the wells, B2 to G2. 100 μl of solution was transferred to perform serial dilutions across the plate from column 2 up to column 9, and 100 μl of solution was discard from column 9. The plate was incubated for 3 days at 37° C., 5% C02. Media was removed, and wells were washed with PBS. Then 200 μl of MTT working solution was added to each well. After the plate was incubated for 2 hours at 37° C., MTT solution was removed and wells were washed with PBS. […]

[3] = Homo sapiens, Keratinocyte, 72 h, HPV-16 immortalized human keratinocytes, 3 days incubation
[4] = Homo sapiens, Keratinocyte, 72 h
[5] = HPV-16 immortalized human keratinocytes, 3 days incubation

Compound	IC50 [1] [µM]	IC50 [2, 3] [µM]	antioxidant activity (in words) [1]	anti-proliferative activity (in words) [2]	IC50 [2, 4] [µM]	IC50 [2, 5] [µM]
COc1cc(OC)c2[nH]ccc2c1C1C=NN(C(C)=O)C1 (stereo not drawn) [1-Acetyl-4,5-dihydro-4-(5′,7′-dimethoxyindol-4′-yl)-1H-pyrazole]	1790	355	–	–	–	–
COc1ccc2[nH]cc(C3C=NN(C(C)=O)C3)c2c1 (stereo not drawn) [1-Acetyl-4,5-dihydro-4-(5′-methoxyindol-3′-yl)-1H-pyrazole]	210	150	almost the same antioxidant activity as melatonin	much more activity than melatonin	–	–
COc1ccc2[nH]cc(C=C[N+](=O)[O-])c2c1OC [4,5-Dimethoxy-3-(2-nitroethenyl)-indole]	440	22	–	very low IG50 values comparative to dithranol	–	–
COc1ccc2[nH]cc(C(C[N+](=O)[O-])C[N+](=O)[O-])c2c1OC [4,5-Dimethoxy-3-bis(nitromethyl)methylindole]	1910	–	–	–	126	–
COc1ccc2[nH]cc(CCN)c2c1OC [4,5-Dimethoxytryptamine]	97	< 100	–	–	–	82.5
COc1cc(OC)c2[nH]ccc2c1CCN [4-(2-Aminoethyl)-5,7-dimethoxyindole]	51	< 100	–	–	–	53.9
COc1ccc2[nH]cc(CCNC(C)=O)c2c1OC [4-Methoxymelatonin]	280	119	almost the same antioxidant activity as melatonin	much more activity than melatonin	–	–
COc1cc(OC)c2[nH]cc(C=C[N+](=O)[O-])c2c1 [5,7-Dimethoxy-3-(2-nitroethenyl)-indole]	810	13.5	–	very low IG50 values comparative to dithranol	–	–
COc1cc(OC)c2[nH]cc(C(C[N+](=O)[O-])C[N+](=O)[O-])c2c1 [5,7-Dimethoxy-3-bis(nitromethyl)methylindole]	1660	–	–	anti-proliferative effect	20.2	–
COc1cc(OC)c2[nH]ccc2c1C=C[N+](=O)[O-] [5,7-Dimethoxy-4-(2-nitroethenyl)-indole]	600	6.62	–	very low IG50 values comparative to dithranol	–	–
COc1cc(OC)c2[nH]ccc2c1C(C[N+](=O)[O-])C[N+](=O)[O-] [5,7-Dimethoxy-4-{2′-nitro-1′-(nitromethyl)ethyl}indole]	3970	–	–	–	145	–
COc1ccc2[nH]cc(C=C[N+](=O)[O-])c2c1 [5-Methoxy-3-(2-nitroethenyl)-indole]	2510	15.5	–	anti-proliferative effect	–	–
COc1ccc(N)c(C(=O)CCNC(C)=O)c1 [AMK, reference compound]	280	–	–	–	–	408
COc1ccc2[nH]cc(CCNC(C)=O)c2c1 [Melatonin]	–	> 862	–	inactive	–	–
CC(=O)NCCc1c[nH]c2ccc(O)cc12 [N-Acetylseratonin, N-acetylserotonin, reference compound]	750	–	–	inactive	–	> 917
NCCc1c[nH]c2ccc(O)cc12 [serotonin, reference compound]	–	–	–	inactive	–	–
N-ethylformylmelatonin	–	–	almost the same antioxidant activity as melatonin	much more activity than melatonin	–	–
